Reference: ChEMBL document CHEMBL1201862, “PubChem BioAssay data set” (2004)
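Method: 48-hour compound exposure of cells in 96-well plates, five concentrations, linear interpolation of endpoints. GI50 = concentration required for 50% inhibition of growth.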 Calls of active or inactive are those of the source. Rule as the data show it: active = GI50 up to about 1.1 µM and inactive = higher.

How the values were obtained:
Experiment in all cases: NCI anticancer screen, dose series, 48 h
[1] = system: 786-0
[2] = system: ACHN
[3] = system: HCT-116
[4] = system: HCT-15
[5] = system: HL-60
[6] = system: IGROV-1
[7] = system: KM-20L2
[8] = system: LXFL 529
[9] = system: NCI-H460
[10] = system: OVCAR-8
[11] = system: RXF 393
[12] = system: SF-268
[13] = system: SF-295
[14] = system: SN12C
[15] = system: SW-620
[16] = system: TK-10
[17] = system: U-251
[18] = system: HOP-92
[19] = system: DU-145
[20] = system: NCI/ADR-RES

In the case of `Cc1c(C(=O)Nc2ccc(Cl)c(C(F)(F)F)c2)oc2cc(O)ccc2/c1=N\NC(N)=S`, the GI50 [1] is reported as > 100 µM (inactive), the GI50 [2] is reported as > 100 µM (inactive) and the GI50 [3] is reported as > 100 µM (inactive). The GI50 [4] was > 100 µM, the GI50 [5] was > 100 µM (inactive) and the GI50 [6] was > 100 µM (inactive). For the same compound, the GI50 [7] was > 100 µM (inactive), the GI50 [8] was > 100 µM (inactive) and the GI50 [9] was > 100 µM (inactive). For the same compound, the GI50 [10] was > 100 µM (inactive), the GI50 [11] was > 100 µM (inactive) and the GI50 [12] was > 100 µM (inactive). For the same compound, the GI50 [13] was > 100 µM (inactive), the GI50 [14] was > 100 µM (inactive) and the GI50 [15] was > 100 µM (inactive). The GI50 [16] was > 100 µM (inactive) and the GI50 [17] was > 100 µM (inactive).

`COc1nc(OC)c2c(=O)oc(-c3ccccc3)cc2n1` was tested, and the GI50 [1] was > 100 µM (inactive), the GI50 [2] was > 100 µM (inactive) and the GI50 [3] was > 100 µM (inactive). The GI50 [4] was > 100 µM, the GI50 [18] was > 100 µM (inactive) and the GI50 [6] was > 100 µM (inactive). For the same compound, the GI50 [7] was > 100 µM (inactive), the GI50 [8] was > 100 µM (inactive) and the GI50 [10] was > 100 µM (inactive). For the same compound, the GI50 [11] was > 100 µM (inactive), the GI50 [12] was > 100 µM (inactive) and the GI50 [13] was > 100 µM (inactive). For the same compound, the GI50 [14] was > 100 µM (inactive), the GI50 [15] was > 100 µM (inactive) and the GI50 [16] was > 100 µM (inactive). The GI50 [17] was > 100 µM (inactive).

`CCOC(=O)C1=C(Nc2cccc3ccccc23)OCC1=O` was tested, and the GI50 [1] was > 100 µM (inactive), the GI50 [2] was > 100 µM (inactive) and the GI50 [3] was > 100 µM (inactive). The GI50 [18] was > 100 µM (inactive), the GI50 [6] was > 100 µM (inactive) and the GI50 [7] was > 100 µM (inactive). The GI50 [8] was > 100 µM (inactive), the GI50 [9] was > 100 µM (inactive) and the GI50 [10] was > 100 µM (inactive). For the same compound, the GI50 [12] was > 100 µM (inactive), the GI50 [14] was > 100 µM (inactive) and the GI50 [15] was > 100 µM (inactive). The GI50 [17] was > 100 µM (inactive).

`Cc1ccc(C2(N3CCOCC3)OC(C)(C)c3cccc4cccc2c34)cc1` (stereo unspecified) was tested, and the GI50 [1] was 17.3 µM (inactive), the GI50 [2] was 16.3 µM (inactive) and the GI50 [19] was 18 µM (inactive). For the same compound, the GI50 [3] was 17.1 µM (inactive), the GI50 [4] was 17 µM and the GI50 [5] was 34.9 µM (inactive). For the same compound, the GI50 [18] was 11.9 µM (inactive), the GI50 [6] was 17.9 µM (inactive) and the GI50 [9] was 14.5 µM (inactive). For the same compound, the GI50 [20] was 15.7 µM (inactive), the GI50 [10] was 16.9 µM (inactive) and the GI50 [11] was 15.3 µM (inactive). For the same compound, the GI50 [12] was 14.4 µM (inactive), the GI50 [13] was 16.9 µM (inactive) and the GI50 [14] was 16.9 µM (inactive). The GI50 [15] was 18.2 µM (inactive), the GI50 [16] was 17.3 µM (inactive) and the GI50 [17] was 16.5 µM (inactive).

With `O=C1C=CC(=O)c2nc3c(cc21)CCC3` the GI50 [1] was 18 µM (inactive), the GI50 [2] was 18.8 µM (inactive) and the GI50 [3] was 15.5 µM (inactive). For the same compound, the GI50 [5] was 4.67 µM (inactive), the GI50 [18] was 19.5 µM (inactive) and the GI50 [6] was 17.8 µM (inactive). For the same compound, the GI50 [8] was 15.5 µM (inactive), the GI50 [9] was 32.7 µM (inactive) and the GI50 [10] was 15.2 µM (inactive). The GI50 [11] was 19.7 µM (inactive), the GI50 [12] was 17.9 µM (inactive) and the GI50 [13] was > 100 µM (inactive). The GI50 [14] was 19.1 µM (inactive), the GI50 [15] was 16.6 µM (inactive) and the GI50 [16] was 18.5 µM (inactive). The GI50 [17] was 78.5 µM (inactive).

In the case of `c1ccc2c(c1)CCc1c(-c3n[nH]c4c3CCc3ccccc3-4)n[nH]c1-2`, the GI50 [1] is reported as > 100 µM (inactive), the GI50 [2] is reported as > 100 µM (inactive) and the GI50 [3] is reported as > 100 µM (inactive). The GI50 [4] was > 100 µM, the GI50 [5] was > 100 µM (inactive) and the GI50 [18] was > 100 µM (inactive). For the same compound, the GI50 [6] was > 100 µM (inactive), the GI50 [7] was > 100 µM (inactive) and the GI50 [8] was > 100 µM (inactive). For the same compound, the GI50 [9] was > 100 µM (inactive), the GI50 [10] was > 100 µM (inactive) and the GI50 [12] was > 100 µM (inactive). The GI50 [13] was > 100 µM (inactive), the GI50 [14] was > 100 µM (inactive) and the GI50 [15] was > 100 µM (inactive). For the same compound, the GI50 [16] was > 100 µM (inactive) and the GI50 [17] was > 100 µM (inactive).

With `CCC1=CC2CN3Cn4c(c(COCc5c6n(c7ccccc57)CN5CC7C=C(CC)C5C6(C(=O)OC)C7)c5ccccc54)C(C(=O)OC)(C2)C13` the GI50 [1] was > 100 µM (inactive), the GI50 [2] was 68.4 µM (inactive) and the GI50 [3] was > 100 µM (inactive). For the same compound, the GI50 [4] was > 100 µM, the GI50 [5] was > 100 µM (inactive) and the GI50 [6] was > 100 µM (inactive). The GI50 [7] was > 100 µM (inactive), the GI50 [8] was > 100 µM (inactive) and the GI50 [9] was > 100 µM (inactive). The GI50 [10] was > 100 µM (inactive), the GI50 [11] was > 100 µM (inactive) and the GI50 [12] was 66.8 µM (inactive). The GI50 [13] was > 100 µM (inactive), the GI50 [14] was > 100 µM (inactive) and the GI50 [15] was > 100 µM (inactive). For the same compound, the GI50 [16] was > 100 µM (inactive) and the GI50 [17] was > 100 µM (inactive).

In the case of `Nc1ccc(C(=O)NN2C(=O)C(Cl)C2c2ccc([N+](=O)[O-])cc2)cc1` (stereo unspecified), the GI50 [1] is reported as 3.87 µM (inactive), the GI50 [2] is reported as 12.3 µM (inactive) and the GI50 [3] is reported as 1.63 µM (inactive). The GI50 [4] was 8.05 µM, the GI50 [5] was 1.92 µM (inactive) and the GI50 [18] was 17.5 µM (inactive). For the same compound, the GI50 [6] was 5.31 µM (inactive), the GI50 [7] was 13.4 µM (inactive) and the GI50 [8] was 4.86 µM (inactive). The GI50 [9] was 6.21 µM (inactive), the GI50 [10] was 14.6 µM (inactive) and the GI50 [12] was 1.99 µM (inactive). The GI50 [13] was 13.8 µM (inactive), the GI50 [14] was 14.8 µM (inactive) and the GI50 [15] was 11.1 µM (inactive). For the same compound, the GI50 [16] was 19.2 µM (inactive) and the GI50 [17] was 2.13 µM (inactive).
